Test results: patent US8748448B2, “Combination analgesic employing opioid agonist and neutral antagonist” (AIKO Biotechnology, priority 2007, dated 2014)
Where “and” joins values, the source holds several entries; their conditions need not be identical. Identical values can stand only once. Like-named read-outs stand apart in the source and are kept apart here.

Key:
[1] = system: hydrocodone-induced antinociception; assay: 55° C. warm-water tail-flick assay: inhibition of hydrocodone-induced antinociception; format: in vivo, mice
[2] = system: hydrocodone effects: GI transit (peripheral) vs. antinociception (central); assay: Peripheral vs. central potency, (antinociception ID50)/(GI transit ID50); format: in vivo, mice; details: for fold more potent peripherally than centrally: over all administration routes
[3] = Neutral antagonist comparison (Table 3); details: for Equivalent dose (as compared to 1.5 mg to 5 mg 6β-naltrexol): 70 kg subject; for potency, times less potent than 6β-naltrexol: stated as 'may be'/'probably'
[4] = Oral bioavailability of the neutral antagonists
[5] = Concentrations in plasma and brain tissue after i.p. injection (LC/MS/MS); details: for change of levels at 60 min from those measured at 10 min: after i.p. injection; for concentration at 10 min / concentration at 60 min: mouse, 1 mg/kg
[6] = system: hydrocodone induced GI inhibition; assay: GI transit assay (charcoal meal): reversal of hydrocodone induced GI inhibition; details: for induction of diarrhea: on administration of the antagonist
[7] = po; cited from earlier work
[8] = system: opioid withdrawal in methadone-dependent subjects; assay: Double-blind ascending dose study in methadone maintenance subjects: withdrawal scales, VAS, vital signs, pupillometry, tolerability
[9] = humans; literature; cited from earlier work
[10] = 1 mg/kg i.p., 60 min after injection
[11] = 10 mg/kg i.p., 10 min after injection
[12] = 10 mg/kg i.p., 60 min after injection
[13] = antagonist i.v., hydrocodone A90 3.2 mg/kg i.v.
[14] = antagonist p.o., hydrocodone A90 3.2 mg/kg i.v.
[15] = antagonist p.o. co-administered with hydrocodone A90 32 mg/kg p.o.

Molecule: 6β-naltrexamide
- potency in blocking hydrocodone-induced antinociception, lower than that of 6β-naltrexol ([1]; mouse, in vivo): approximately 10 fold
- time of peak effect of antinociception inhibition ([1]; mouse, in vivo): 120 min and 120 to 180 min
- peripheral over central antagonist selectivity compared to 6β-naltrexol ([2]; animal experiments): somewhat higher
- Fold-Shift (antinociception ID50)/(GI transit ID50) ([2]; antagonist p.o./hydrocodone i.v.): 14 and 14.3
- selectivity in blocking peripheral over central opioid effects ([2]; mice, oral administration, earlier experiments): approximately twenty-fold
- fold more potent peripherally than centrally [2]: 14-25 fold
- Half-life of active metabolites [3]: Estimated >12 hours
- Bioavailability for CNS (central) effects ([3]; given orally): ~25%
- Equivalent dose (as compared to 1.5 mg to 5 mg 6β-naltrexol) ([3]; given orally): 3 to 8 mg
- potency, times less potent than 6β-naltrexol [3]: 2-3 fold
- oral bioavailability (into the circulation), estimated ([4]; humans, estimated): approximately 25%
- oral bioavailability ([4]; species not stated): ~20%
- Brain concentration ([5]; 1 mg/kg i.p., 10 min after injection): 6 ± 1 ng/g
- Plasma concentration ([5]; 1 mg/kg i.p., 10 min after injection, mean±SD, n=3): 115 ± 2 ng/mL
- Brain concentration [5, 10]: 4 ± 1 ng/g
- Plasma concentration [5, 10]: 18 ± 1 ng/mL
- Brain concentration [5, 11]: 27 ± 6 ng/g
- Plasma concentration [5, 11]: 933 ± 221 ng/mL
- Brain concentration [5, 12]: 24 ± 1 ng/g
- Plasma concentration [5, 12]: 166 ± 77 ng/mL
- change of levels at 60 min from those measured at 10 min [5]: had not changed
- blood half-life compared with 6β-naltrexol ([5]; mice, preliminary experiments): longer blood half-life than 6β-naltrexol
- potency in blocking peripheral effects, lower than 6β-naltrexol on a mg/kg basis ([6]; animal experiments): 2-3 fold
- GI Transit ID50 [6, 13]: 0.173 mg/kg
- GI Transit ID50 ([6]; antagonist p.o./hydrocodone p.o., full dose-response curves not available): 1 to 2 mg/kg
- GI Transit ID50 [6, 14]: 1.92 mg/kg
- GI transit ID50, expected ([6]; i.v. administration): 0.1 to 0.2 mg/kg
- induction of diarrhea [6]: absent
- GI transit ID50, expected ([6]; p.o. administration): 1 to 2 mg/kg

Molecule: N[C@@H]1CC[C@@]2(O)[C@H]3Cc4ccc(O)c5c4[C@@]2(CCN3CC2CC2)[C@H]1O5 [6β-naltrexamine]
- Equivalent dose (as compared to 1.5 mg to 5 mg 6β-naltrexol) ([3]; given orally): 7.5 to 20 mg
- potency, times less potent than 6β-naltrexol [3]: 3-6 fold

Molecule: COc1ccc2c3c1O[C@H]1[C@@H](O)C=C[C@H]4[C@@H](C2)N(C)CC[C@@]341 [Codeine]
- Bioavailability for CNS (central) effects [7]: ≈90%

Molecule: COc1ccc2c3c1O[C@H]1C(=O)CC[C@H]4[C@@H](C2)N(C)CC[C@]314 [Hydrocodone]
- Bioavailability for CNS (central) effects [7]: ≧80%

Molecule: CN1CC[C@]23CCCC[C@H]2[C@H]1Cc1ccc(O)cc13 [Levorphanol]
- Bioavailability for CNS (central) effects [7]: 70%

Molecule: C=CCN1CC[C@]23c4c5ccc(O)c4O[C@H]2C(=O)CC[C@@]3(O)[C@H]1C5 [Naloxone, naloxone, reference compound]
- withdrawal symptoms ([8]; 0.050 mg, methadone-dependent subjects): detectable withdrawal symptoms
- Diastolic BP, peak value ([8]; dose 0.05 mg): 76.5 ± 3.8 mmHg
- Heart Rate, peak value ([8]; dose 0.05 mg): 63.5 ± 8.0 bpm
- SOWS (total), peak value ([8]; dose 0.05 mg): 3.0 ± 2.8
- VAS Any Drug Effect, peak value ([8]; dose 0.05 mg): 15.4 ± 23.7
- VAS Bad Drug Effect, peak value ([8]; dose 0.05 mg): 13.5 ± 25.0
- VAS Good Drug Effect, peak value ([8]; dose 0.05 mg): 10.4 ± 18.9
- VAS Opioid Withdrawal, peak value ([8]; dose 0.05 mg): 5.6 ± 8.2
- VAS Sickness, peak value ([8]; dose 0.05 mg): 4.6 ± 6.5
- OOWS (total), peak value ([8]; dose 0.05 mg, mean ± standard deviation): 2.5 ± 0.6

Molecule: O=C1CC[C@@]2(O)[C@H]3Cc4ccc(O)c5c4[C@@]2(CCN3CC2CC2)[C@H]1O5 [Naltrexone, naltrexone, reference compound]
- Antinociception ID50 ([1]; antagonist i.v. pretreatment, hydrocodone A90 3.2 mg/kg i.v.): 0.0411 mg/kg
- Antinociception ID50 [1, 15]: 0.914 mg/kg
- Antinociception ID50 ([1]; antagonist p.o. pretreatment, hydrocodone A90 3.2 mg/kg i.v.): 0.534 mg/kg
- time of peak effect of antinociception inhibition ([1]; i.v. administration, hydrocodone 3.2 mg/kg i.v.): 30 min
- time of peak effect of antinociception inhibition ([1]; p.o. administration, hydrocodone 3.2 mg/kg i.v.): 45 min
- fold more potent peripherally than centrally [2]: nearly equipotent peripherally and centrally
- fraction converted to 6β-naltrexol [9]: approximately 43%
- change of levels at 60 min from those measured at 10 min [5]: ~90%
- detectability after administration of 6β-naltrexol ([5]; i.p. 6β-naltrexol): no naltrexone was detectable
- concentration at 10 min ([5]; brain, intraperitoneal): 69 ± 20 ng/g
- concentration at 60 min ([5]; brain, intraperitoneal): 9 ± 1 ng/g
- concentration at 10 min ([5]; in vivo): 54 ± 16 ng/mL
- concentration at 60 min ([5]; in vivo): 4 ± 1 ng/mL
- GI Transit ID50 [6, 13]: 0.0456 mg/kg
- GI Transit ID50 [6, 15]: 1.40 mg/kg
- GI Transit ID50 [6, 14]: 0.194 mg/kg
- induction of diarrhea [6]: strong induction of diarrhea was present

Molecule: CN1CC[C@]23c4c5ccc(O)c4O[C@H]2C(=O)CC[C@@]3(O)[C@H]1C5 [Oxymorphone]
- Bioavailability for CNS (central) effects [7]: 10%

Molecule: CCOC(=O)C1(c2ccccc2)CCN(C)CC1 [Pethidine]
- Bioavailability for CNS (central) effects [7]: 50-60%

Molecule: COc1cccc(C2(O)CCCCC2CN(C)C)c1 (stereo not shown) [Tramadol]
- Bioavailability for CNS (central) effects [7]: 68-72%
